Experimental data as given in patent US8124834B2, “Use of active cytokinin synthase gene” (Riken, priority 2006, dated 2012).

What was measured:
[1] = test system: AtLOG 1, 2, 3, 4, 5, 7 and 8 proteins; test: Confirmation of LOG enzyme activity of Arabidopsis thaliana LOG homolog proteins (substrate specificity); type: biochemical; details: purified AtLOG 1, 2, 3, 4, 5, 7 and 8 proteins, result stated for all together
Experimental: (§1) 3 μg of the recombinant LOG protein obtained in Example 1 was allowed to react with various types of cytokinins used as substrates. The following 8 types of cytokinin substrates were used: N^6-(delta-2-isopentenyl)adenine (iP), trans-zeatin (tZ), cis-zeatin (cZ), iP riboside (iPR), tZ riboside (tZR), cZ riboside (cZR), iPR 5′-monophosphate (iPRMP), and tZR 5′-monophosphate (tZRMP). As reaction conditions, 100 μl of a reaction solution containing 50 mM Tris-HCl, 1 mM MgCl2, and a 50 μM substrate, pH7 was incubated at 30° C. for 2 hours. Thereafter, 10 μl of 20% acetic acid was added to the reaction solution to terminate the reaction, and the reaction solution was then centrifuged at 15,000 rpm at a room temperature for 20 minutes. Thereafter, 20 μl of a supernatant was analyzed by liquid chromatography using HPLC (Waters Alliance 2695/PDA detector 2996). As a column, Symmetry C18, 3.5 μm, 2.1×100 mm cartridge (Waters) was used. For elution, solvent C (100% acetonitrile) and solvent D (2% acetic acid) were used.
The reaction specificity of the LOG protein to a nucleotide cytokinin form was analyzed. At the same time, the presence or absence of the reactivity of the LOG protein to AMP was also analyzed. […] The resultant was dissolved in 100 μl of 2% acetic acid, and the reaction product was then detected and quantified under the same conditions as those for the liquid chromatography of Example 2. […] In the case of iPRDP and iPRTP, the amount of a reaction solution was determined to be 100 μl, the mass of a protein used was determined to be 0.01 μg, and the reaction time was determined to be 2 minutes.
The enzyme activity of each of the purified AtLOG proteins was evaluated under the same reaction conditions as those of Example 2. […] In addition, the enzyme property of each AtLOG protein to iPRMP was determined in the same manner as in Example 5 (Table 4). In Table 4, the Km, Vmax and Kcat values were calculated based on a reaction under the optimal pH condition of each AtLOG protein.

LOG protein [2] = target: T1, LOG protein (Oryza sativa subsp. japonica, UniProt Q5ZC82); test: Substrate specificity of LOG protein to nucleotide cytokinin forms and AMP; type: biochemical; set-up: the protein coding region of the LOG gene cDNA was inserted into pCOLD-I (TaKaRa), a His-tag protein expression vector; made in house; host or cells: E. coli BL21(DE3)[pG-Tf2]; details: 0.02 μg LOG protein, 100 μM substrate, pH 6.5, 4 minutes (iPRDP, iPRTP: 0.01 μg, 2 minutes)
T1 sequence (Q5ZC82 1-242): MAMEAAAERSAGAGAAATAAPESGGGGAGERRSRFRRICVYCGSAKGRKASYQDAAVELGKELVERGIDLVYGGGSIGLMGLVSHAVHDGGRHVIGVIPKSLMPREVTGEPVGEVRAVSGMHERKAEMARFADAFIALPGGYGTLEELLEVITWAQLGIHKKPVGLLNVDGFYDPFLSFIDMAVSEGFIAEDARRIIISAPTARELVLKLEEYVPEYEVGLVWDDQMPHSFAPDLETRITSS
Experimental: The reaction specificity of the LOG protein to a nucleotide cytokinin form was analyzed. […] The following 7 types of substrates were used: iPRMP, tZRMP, dihydrozeatin riboside 5′-monophosphate (DZRMP), cZR 5′-monophosphate (cZRMP), iPR 5′-diphosphate (iPRDP), iPR 5′-triphosphate (iPRTP), and AMP. The reaction conditions are as follows. 0.02 μg of the LOG protein was used for a single reaction, and it was reacted with a 100 μM substrate in 200 μl of a reaction solution containing 50 mM Tris-HCl, 1 mM MgCl2, 1 mM DTT, pH 6.5. Thereafter, 0 minute and 4 minutes after initiation of the reaction, 600 μl of cold acetone was added to the reaction solution to terminate the reaction. The reaction solution was left at rest at −80° C. for 30 minutes, and it was then centrifuged at 15,000 rpm for 20 minutes. Thereafter, a supernatant was dried using a centrifugal thickener. […] Only the injection amount was changed to 50 μl. In the case of iPRDP and iPRTP, the amount of a reaction solution was determined to be 100 μl, the mass of a protein used was determined to be 0.01 μg, and the reaction time was determined to be 2 minutes.

LOG protein [3] = target: T1, LOG protein; test: Detection of enzyme activity of recombinant LOG protein with cytokinin substrates (HPLC); type: biochemical; set-up: the protein coding region of the LOG gene cDNA was inserted into pCOLD-I (TaKaRa), a His-tag protein expression vector; made in house; host or cells: E. coli BL21(DE3)[pG-Tf2]; details: 3 μg LOG protein, 50 μM substrate, pH7, 30° C., 2 hours, HPLC absorption at 270 nm
Experimental: as §1, with “The” for “3 μg of the recombinant LOG protein obtained in Example 1 was allowed to react with various types of cytokinins used as substrates. The”, “Thereafter, 20 μl of a supernatant was analyzed by liquid chromatography using HPLC (Waters Alliance 2695/PDA detector 2996). As a column, Symmetry C18, 3.5 μm, 2.1×100 mm cartridge (Waters) was used.” left out

LOG protein [4] = target: T1, LOG protein; test: Measurement of Km value of LOG protein to iPRMP and tZRMP; type: biochemical; set-up: the protein coding region of the LOG gene cDNA was inserted into pCOLD-I (TaKaRa), a His-tag protein expression vector; made in house; host or cells: E. coli BL21(DE3)[pG-Tf2]; details: substrate 5-100 μM, 0.02 μg LOG protein, pH 6.5
Experimental: In order to obtain the Km value of the LOG protein to typical substrates iPRMP and tZRMP, the following experiment was carried out. 0.02 μg of LOG protein was used for a single reaction, and it was reacted with a substrate in a substrate concentration of each of 5, 8, 15, 30 and 100 μM in 200 μl of a reaction solution containing 50 mM Tris-HCl, 1 mM MgCl2, 1 mM DTT, pH 6.5. Thereafter, 0 minute, 2 minutes and 4 minutes after initiation of the reaction, 600 μl of cold acetone was added to the reaction solution to terminate the reaction. The reaction solution was left at rest at −80° C. for 30 minutes, and it was then centrifuged at 15,000 rpm for 20 minutes. Thereafter, a supernatant was dried using a centrifugal thickener. The resultant was dissolved in 100 μl of 2% acetic acid, and a reaction product was then detected and quantified under the same conditions as those for the liquid chromatography of Example 2. Only the injection amount was changed to 50 μl. The aforementioned experiment was carried out three times, and the Km value was calculated.

LOG protein [5] = target: T1, LOG protein; details: 3 μg LOG protein, 5 mM L-lysine, pH 6.0, 40° C., 60 minutes, HPLC absorption at 226 nm
Source text: As a column, Symmetry C18, 3.5 μm, 2.1×100 mm cartridge (Waters) was used.

reactivity of AtLOG proteins to the substrate (substrate specificity) [1] | reactivity of LOG protein to the substrate (substrate specificity) (LOG protein [2]) | reactivity of the substrate with recombinant LOG protein (conversion to base form) (LOG protein [3]) | specific activity of the LOG protein (LOG protein [4]) | Structure (SMILES) | reactivity of LOG protein to lysine (LOG protein [5])
almost no reactivity | no reactivity | – | – | Nc1ncnc2c1ncn2[C@@H]1O[C@H](COP(=O)(O)O)[C@@H](O)[C@H]1O [AMP] | –
almost no reactivity | no reactivity | – | – | CC(C)=CCNc1ncnc2c1ncn2[C@@H]1O[C@H](COP(=O)(O)OP(=O)(O)O)[C@@H](O)[C@H]1O [iPRDP, iPR 5′-diphosphate] | –
– | uses as a substrate | completely converted | 5.6 μmol/min^−1/mg^−1 protein | CC(C)=CCNc1ncnc2c1ncn2[C@@H]1O[C@H](COP(=O)(O)O)[C@@H](O)[C@H]1O [iPRMP, isopentenyladenine riboside 5′-monophosphate] | –
almost no reactivity | no reactivity | – | – | CC(C)=CCNc1ncnc2c1ncn2[C@@H]1O[C@H](COP(=O)(O)OP(=O)(O)OP(=O)(O)O)[C@@H](O)[C@H]1O [iPRTP, iPR 5′-triphosphate] | –
– | – | – | – | NCCCC[C@H](N)C(=O)O [lysine, L-lysine] | did not exhibit reactivity
